US8952024B2, “Herbicidal pyrimidone derivatives” (E I du Pont de Nemours and Company, priority 2009, dated 2015)

Tests used:
Type in all cases: in vivo
[1] = tested on: Italian ryegrass (Lolium multiflorum); experiment: Test B pre-/postemergence plant response; details: for Plant response rating, Ryegrass, Italian: Postemergence
Method in brief: (§1)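 Response scores were assigned visually after 13 to 15 days in a greenhouse, comparing treated pots with controls on a 0–100 scale where 100 denotes complete control. Preemergence treatments went onto freshly seeded loam/sand soil; postemergence treatments onto plants 2 to 18 cm tall.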

[2] = tested on: bermudagrass (Cynodon dactylon); experiment: Test B pre-/postemergence plant response; details: for Plant response rating, Bermudagrass: Postemergence
Method in brief: as §1

[3] = tested on: blackgrass (Alopecurus myosuroides); experiment: Test B pre-/postemergence plant response; details: for Plant response rating, Blackgrass: Postemergence
Method in brief: as §1

[4] = tested on: corn (Zea mays); experiment: Test B pre-/postemergence plant response; details: for Plant response rating, Corn: Postemergence
Method in brief: as §1

[5] = tested on: downy bromegrass (Bromus tectorum); experiment: Test B pre-/postemergence plant response; details: for Plant response rating, Bromegrass, Downy: Postemergence
Method in brief: as §1

[6] = tested on: giant foxtail (Setaria faberii); experiment: Test B pre-/postemergence plant response; details: for Plant response rating, Foxtail, Giant: Postemergence
Method in brief: as §1

[7] = tested on: goosegrass (Eleusine indica); experiment: Test B pre-/postemergence plant response; details: for Plant response rating, Goosegrass: Postemergence
Method in brief: as §1

[8] = tested on: green foxtail (Setaria viridis); experiment: Test B pre-/postemergence plant response; details: for Plant response rating, Foxtail, Green: Postemergence
Method in brief: as §1

[9] = tested on: johnsongrass (Sorghum halepense); experiment: Test B pre-/postemergence plant response; details: for Plant response rating, Johnsongrass: Postemergence
Method in brief: as §1

[10] = tested on: morningglory (Ipomoea coccinea); experiment: Test B pre-/postemergence plant response; details: for Plant response rating, Morningglory: Postemergence
Method in brief: as §1

[11] = tested on: pigweed (Amaranthus retroflexus); experiment: Test B pre-/postemergence plant response; details: for Plant response rating, Pigweed: Postemergence
Method in brief: as §1

[12] = tested on: ragweed (common ragweed, Ambrosia elatior); experiment: Test B pre-/postemergence plant response; details: for Plant response rating, Ragweed: Postemergence
Method in brief: as §1

[13] = tested on: soybean (Glycine max); experiment: Test B pre-/postemergence plant response; details: for Plant response rating, Soybean: Postemergence
Method in brief: as §1

[14] = tested on: velvetleaf (Abutilon theophrasti); experiment: Test B pre-/postemergence plant response; details: for Plant response rating, Velvetleaf: Postemergence
Method in brief: as §1

[15] = tested on: wheat (Triticum aestivum); experiment: Test B pre-/postemergence plant response; details: for Plant response rating, Wheat: Postemergence
Method in brief: as §1

[16] = tested on: canarygrass (Phalaris minor); experiment: Test B postemergence plant response; details: for Plant response rating, Canarygrass: Postemergence
Method in brief: (§2)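 Plants grown in peat/vermiculite medium were sprayed postemergence at 2–18 cm height (1- to 4-leaf stage). After 13–15 days in the greenhouse, response was rated visually against untreated controls on a 0–100 scale (0 no effect, 100 complete control).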

[17] = tested on: chickweed (Stellaria media); experiment: Test B postemergence plant response; details: for Plant response rating, Chickweed: Postemergence
Method in brief: as §2

[18] = tested on: winter barley (Hordeum vulgare); experiment: Test B postemergence plant response; details: for Plant response rating, Barley: Postemergence
Method in brief: as §2

[19] = 62 g ai/ha, postemergence, 0 is no effect, 100 is complete control, 13 to 15 days
[20] = 31 g ai/ha, 0 to 100 scale (0 no effect, 100 complete control)
[21] = 125 g ai/ha, scale 0 to 100 (0 no effect, 100 complete control)

CCn1c(-c2cc(F)cc(F)c2)ncc(C(=O)C2=C(O)CCCC2=O)c1=O [Compound 122]
0: Plant response rating, Blackgrass ([3]; 16 g ai/ha, 0 to 100 scale) | Plant response rating, Corn ([4]; 16 g ai/ha, 0 to 100 scale) | Plant response rating, Corn [4, 20] | Plant response rating, Canarygrass ([16]; 16 g ai/ha, 0 to 100 scale) | Plant response rating, Barley ([18]; 16 g ai/ha, 0 to 100 scale) | Plant response rating, Barley [18, 20]
30: Wheat plant response rating (0 to 100 scale) [15, 19]
98: Plant response rating, Pigweed [11, 21] | Plant response rating, Velvetleaf [14, 21]
35: Canarygrass plant response rating (0 to 100 scale) [16, 19]
45: Plant response rating, Johnsongrass [9, 20] | Plant response rating, Soybean [13, 20] | Plant response rating, Canarygrass [16, 21]
50: Plant response rating, Bromegrass, Downy [5, 21] | Plant response rating, Wheat [15, 21] | Plant response rating, Barley [18, 21]
15: Plant response rating, Blackgrass [3, 21] | Corn plant response rating (0 to 100 scale) [4, 19] | Plant response rating, Wheat [15, 20]
25: Plant response rating, Corn [4, 21]
55: Plant response rating, Morningglory ([10]; 16 g ai/ha, 0 to 100 scale) | Plant response rating, Ragweed ([12]; 16 g ai/ha, 0 to 100 scale)
80: Bermudagrass plant response rating (0 to 100 scale) [2, 19] | Plant response rating, Foxtail, Giant [6, 21] | Plant response rating, Foxtail, Green [8, 20] | Plant response rating, Soybean [13, 21] | Plant response rating, Velvetleaf [14, 20] | Plant response rating, Chickweed [17, 21]
40: Plant response rating, Ryegrass, Italian [1, 21] | Plant response rating, Goosegrass [7, 20] | Plant response rating, Foxtail, Green ([8]; 16 g ai/ha, 0 to 100 scale)
20: Plant response rating, Johnsongrass ([9]; 16 g ai/ha, 0 to 100 scale) | Plant response rating, Soybean ([13]; 16 g ai/ha, 0 to 100 scale)
90: Pigweed plant response rating (0 to 100 scale) [11, 19] | Velvetleaf plant response rating (0 to 100 scale) [14, 19]
85: Plant response rating, Bermudagrass [2, 21] | Foxtail, Green plant response rating (0 to 100 scale) [8, 19] | Plant response rating, Foxtail, Green [8, 21] | Plant response rating, Morningglory [10, 21] | Plant response rating, Pigweed [11, 20]
10: Ryegrass, Italian plant response rating (0 to 100 scale) [1, 19] | Plant response rating, Goosegrass ([7]; 16 g ai/ha, 0 to 100 scale) | Plant response rating, Canarygrass [16, 20] | Barley plant response rating (0 to 100 scale) [18, 19]
5: Plant response rating, Ryegrass, Italian ([1]; 16 g ai/ha, 0 to 100 scale) | Plant response rating, Ryegrass, Italian [1, 20] | Blackgrass plant response rating (0 to 100 scale) [3, 19] | Plant response rating, Blackgrass [3, 20] | Plant response rating, Bromegrass, Downy ([5]; 16 g ai/ha, 0 to 100 scale) | Bromegrass, Downy plant response rating (0 to 100 scale) [5, 19] | Plant response rating, Bromegrass, Downy [5, 20] | Plant response rating, Wheat ([15]; 16 g ai/ha, 0 to 100 scale)
75: Plant response rating, Bermudagrass [2, 20] | Foxtail, Giant plant response rating (0 to 100 scale) [6, 19] | Plant response rating, Johnsongrass [9, 21] | Morningglory plant response rating (0 to 100 scale) [10, 19] | Plant response rating, Pigweed ([11]; 16 g ai/ha, 0 to 100 scale) | Plant response rating, Ragweed [12, 21] | Soybean plant response rating (0 to 100 scale) [13, 19] | Plant response rating, Velvetleaf ([14]; 16 g ai/ha, 0 to 100 scale)
65: Plant response rating, Bermudagrass ([2]; 16 g ai/ha, 0 to 100 scale) | Plant response rating, Foxtail, Giant ([6]; 16 g ai/ha, 0 to 100 scale) | Goosegrass plant response rating (0 to 100 scale) [7, 19] | Johnsongrass plant response rating (0 to 100 scale) [9, 19] | Plant response rating, Chickweed ([17]; 16 g ai/ha, 0 to 100 scale)
60: Plant response rating, Morningglory [10, 20] | Ragweed plant response rating (0 to 100 scale) [12, 19] | Plant response rating, Ragweed [12, 20]
70: Plant response rating, Foxtail, Giant [6, 20] | Plant response rating, Goosegrass [7, 21] | Chickweed plant response rating (0 to 100 scale) [17, 19] | Plant response rating, Chickweed [17, 20]
